Reference: ChEMBL document CHEMBL1201862, “PubChem BioAssay data set” (2004)
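Test compounds were applied to cells in 96-well plates for 48 hours at 5 doses. Here, GI50 denotes the concentration required for 50% inhibition of growth.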 Calls of active or inactive are those of the source. No stated cut-off is given here; in the data, active = GI50 up to about 1.1 µM and inactive = higher.

Experiments:
Assay in all cases: inhibition of tumour cell growth, NCI panel, 48 h
[1] = system: ACHN
[2] = system: BT-549
[3] = system: CAKI-1
[4] = system: HCT-15
[5] = system: HL-60
[6] = system: HT-29
[7] = system: MCF7
[8] = system: MDA-N
[9] = system: MOLT-4
[10] = system: NCI-H23
[11] = system: NCI-H460
[12] = system: PC-3
[13] = system: RPMI-8226
[14] = system: RXF 393
[15] = system: SF-268
[16] = system: SK-MEL-5
[17] = system: SR
[18] = system: UACC-62
[19] = system: UO-31
[20] = system: HCC 2998

Row | SMILES | GI50 [1] | GI50 [2] | GI50 [3] | GI50 [4] [µM] | GI50 [5] | GI50 [6] | GI50 [7] | GI50 [8] | GI50 [9] | GI50 [10] | GI50 [11] | GI50 [12] | GI50 [13] | GI50 [14] | GI50 [15] | GI50 [16] | GI50 [17] | GI50 [18] | GI50 [19] | GI50 [20]
1 | CCOC(=O)c1ccc(N(C)Cc2cnc3nc(N)nc(N)c3n2)cc1 | 5.05 µM (inactive) | 17.3 µM (inactive) | 14.4 µM (inactive) | 4.85 | 80.4 µM (inactive) | 7.98 µM (inactive) | 12.6 µM (inactive) | 18.5 µM (inactive) | 7.91 µM (inactive) | 9.04 µM (inactive) | 9.79 µM (inactive) | 5.02 µM (inactive) | 74 µM (inactive) | 5.97 µM (inactive) | 9.51 µM (inactive) | 6.1 µM (inactive) | 6.81 µM (inactive) | 5.42 µM (inactive) | 14.2 µM (inactive) | 
2 | O=C(O)/C=C\C(=O)Nn1c(Cc2ccc(Cl)cc2)n[nH]c1=O |  | > 100 µM (inactive) | > 100 µM (inactive) | > 100 | > 100 µM (inactive) | > 100 µM (inactive) | > 100 µM (inactive) | > 100 µM (inactive) | > 100 µM (inactive) | > 100 µM (inactive) | > 100 µM (inactive) | > 100 µM (inactive) |  | > 100 µM (inactive) | > 100 µM (inactive) | > 100 µM (inactive) | > 100 µM (inactive) | > 100 µM (inactive) |  | > 100 µM (inactive)
3 | O=c1[nH]c2ccc(Cl)cc2c2oc(-c3ccccc3)nc12 | 24.5 µM (inactive) | > 100 µM (inactive) | 21.6 µM (inactive) | 51.6 |  | 83.9 µM (inactive) | 6.07 µM (inactive) | 45.7 µM (inactive) | 76.2 µM (inactive) | 25.2 µM (inactive) | 20 µM (inactive) | 29.9 µM (inactive) | 26 µM (inactive) | 14.1 µM (inactive) | 36 µM (inactive) | 25.9 µM (inactive) | 21 µM (inactive) | 70.5 µM (inactive) | 22.1 µM (inactive) | 26.3 µM (inactive)
4 | CC(/C=N/N=C1NCCCN1)=N\N=C1NCCCN1 | > 100 µM (inactive) | > 100 µM (inactive) | > 100 µM (inactive) | > 100 |  | > 100 µM (inactive) | > 100 µM (inactive) | > 100 µM (inactive) | > 100 µM (inactive) | > 100 µM (inactive) | > 100 µM (inactive) | > 100 µM (inactive) | > 100 µM (inactive) | > 100 µM (inactive) | > 100 µM (inactive) | > 100 µM (inactive) | > 100 µM (inactive) | > 100 µM (inactive) | > 100 µM (inactive) | > 100 µM (inactive)
5 | CCCC(=O)N/S(=N/S(=O)(=O)c1ccc(Cl)cc1)C(Cl)(Cl)Cl (stereo not given) | > 100 µM (inactive) | > 100 µM (inactive) |  | > 100 | > 100 µM (inactive) | > 100 µM (inactive) | > 100 µM (inactive) | > 100 µM (inactive) | > 100 µM (inactive) | > 100 µM (inactive) | > 100 µM (inactive) | > 100 µM (inactive) |  | > 100 µM (inactive) | > 100 µM (inactive) | > 100 µM (inactive) | > 100 µM (inactive) | > 100 µM (inactive) | > 100 µM (inactive) | > 100 µM (inactive)
6 | C=C1CC[C@@]2(C)[C@@H]([C@@H]1C)[C@H]1CC[C@@H]3[C@@]4(C)CC[C@H](O)C(C)(C)[C@@H]4CC[C@@]3(C)[C@]1(C)C[C@@H]2O | 2.11 µM (inactive) | 10 µM (inactive) | 2.42 µM (inactive) | 3.24 | 1.53 µM (inactive) | 3.9 µM (inactive) | 2.13 µM (inactive) | 8.53 µM (inactive) | 3.22 µM (inactive) | 2.48 µM (inactive) | 2.11 µM (inactive) | 2.86 µM (inactive) | > 100 µM (inactive) | 1.77 µM (inactive) | 2.28 µM (inactive) | 5.16 µM (inactive) | > 100 µM (inactive) | 7.45 µM (inactive) | 2.5 µM (inactive) | 
7 | CC(C)c1ccc(/C(C(=O)O)=C(\O)C(=O)O)cc1 | > 100 µM (inactive) | > 100 µM (inactive) | > 100 µM (inactive) | > 100 | > 100 µM (inactive) | > 100 µM (inactive) | > 100 µM (inactive) | > 100 µM (inactive) | > 100 µM (inactive) | > 100 µM (inactive) | > 100 µM (inactive) | > 100 µM (inactive) | > 100 µM (inactive) | > 100 µM (inactive) | > 100 µM (inactive) | > 100 µM (inactive) | > 100 µM (inactive) | > 100 µM (inactive) | > 100 µM (inactive) | 
8 | N=C(N)NCCCC(=O)O | > 100 µM (inactive) | > 100 µM (inactive) | > 100 µM (inactive) | > 100 | > 100 µM (inactive) | > 100 µM (inactive) | > 100 µM (inactive) | > 100 µM (inactive) | > 100 µM (inactive) | > 100 µM (inactive) | > 100 µM (inactive) | > 100 µM (inactive) | > 100 µM (inactive) | > 100 µM (inactive) | > 100 µM (inactive) | > 100 µM (inactive) | > 100 µM (inactive) | > 100 µM (inactive) | > 100 µM (inactive) | 
9 | CC1(C)CCCCCC(O)C(O)CCC(C)(C)C1=O (stereo not given) | > 100 µM (inactive) | > 100 µM (inactive) | > 100 µM (inactive) | > 100 | > 100 µM (inactive) | > 100 µM (inactive) | > 100 µM (inactive) | > 100 µM (inactive) | > 100 µM (inactive) | > 100 µM (inactive) | > 100 µM (inactive) | > 100 µM (inactive) | > 100 µM (inactive) | > 100 µM (inactive) | > 100 µM (inactive) | > 100 µM (inactive) | > 100 µM (inactive) | > 100 µM (inactive) | > 100 µM (inactive) | 
10 | O=C(CC(=O)n1nc(-c2ccccc2)c(/N=N/c2ccccc2C(=O)O)c1-c1ccccc1)Nc1ccc(Cl)cc1 | 33.5 µM (inactive) | 24.7 µM (inactive) |  | 26.9 | 10.2 µM (inactive) | 34.2 µM (inactive) | 30.3 µM (inactive) | 36.1 µM (inactive) | 5.57 µM (inactive) | 20.5 µM (inactive) | 19.2 µM (inactive) | 27.5 µM (inactive) | 20.4 µM (inactive) | 7.66 µM (inactive) |  | 42 µM (inactive) | 11.6 µM (inactive) | 77.1 µM (inactive) | 15.5 µM (inactive) | 34.4 µM (inactive)
11 | Nc1c(Br)cc(-c2nc3ccccc3s2)cc1Br | > 100 µM (inactive) | > 100 µM (inactive) | > 100 µM (inactive) | > 100 | > 100 µM (inactive) | > 100 µM (inactive) | 18.9 µM (inactive) | > 100 µM (inactive) | > 100 µM (inactive) |  | > 100 µM (inactive) | > 100 µM (inactive) |  | > 100 µM (inactive) | > 100 µM (inactive) | > 100 µM (inactive) | > 100 µM (inactive) | > 100 µM (inactive) | > 100 µM (inactive) | 30.6 µM (inactive)
12 | CNc1ccc(Cl)cc1S(=O)(=O)c1ccccc1[N+](=O)[O-] | > 100 µM (inactive) | > 100 µM (inactive) |  | > 100 | > 100 µM (inactive) | > 100 µM (inactive) | > 100 µM (inactive) | > 100 µM (inactive) | > 100 µM (inactive) | > 100 µM (inactive) | > 100 µM (inactive) | > 100 µM (inactive) | > 100 µM (inactive) | > 100 µM (inactive) | > 100 µM (inactive) | 46.7 µM (inactive) | > 100 µM (inactive) | > 100 µM (inactive) | > 100 µM (inactive) | > 100 µM (inactive)
13 | CC(C)(Oc1ccc(Cl)cc1)C(=O)N(C(=O)N1CCN(c2ccccc2)CC1)c1ccccc1 | 9.71 µM (inactive) | > 100 µM (inactive) | 7.87 µM (inactive) | 6.61 | 4.16 µM (inactive) | 6.25 µM (inactive) | 8.59 µM (inactive) | 62.8 µM (inactive) | 4.12 µM (inactive) | 8.83 µM (inactive) | 3.75 µM (inactive) | 4.78 µM (inactive) |  | > 100 µM (inactive) | > 100 µM (inactive) | 4.68 µM (inactive) | 3.76 µM (inactive) | 5.83 µM (inactive) | 11.7 µM (inactive) | 92.5 µM (inactive)
14 | NCCNCC1CCNCC1 | > 100 µM (inactive) | > 100 µM (inactive) | > 100 µM (inactive) | > 100 |  | > 100 µM (inactive) | > 100 µM (inactive) | > 100 µM (inactive) | > 100 µM (inactive) | > 100 µM (inactive) | > 100 µM (inactive) | > 100 µM (inactive) | > 100 µM (inactive) | > 100 µM (inactive) | > 100 µM (inactive) | > 100 µM (inactive) | > 100 µM (inactive) | > 100 µM (inactive) | > 100 µM (inactive) | > 100 µM (inactive)
15 | Fc1ccc(C(=C2CCN(CCc3ccc4[nH]c(=S)[nH]c4c3)CC2)c2ccc(F)cc2)cc1 | 8.83 µM (inactive) | 5.98 µM (inactive) | 10.8 µM (inactive) | 3.15 | 2.33 µM (inactive) | 1.9 µM (inactive) | 2.21 µM (inactive) | 1.96 µM (inactive) | 3 µM (inactive) | 5.02 µM (inactive) | 2.83 µM (inactive) | 2.73 µM (inactive) | 2.73 µM (inactive) | 1.85 µM (inactive) | 6.65 µM (inactive) | 1.84 µM (inactive) | 2.7 µM (inactive) | 5.32 µM (inactive) | 2.67 µM (inactive) | 
